Measurements as given in patent US20130116231A1, “TYROSINE KINASE INHIBITORS” (Merck Sharp & Dohme Corp., priority 2010, published 2013).

target: T1, human c-Met (Homo sapiens, UniProt P08581); experiment: in vitro kinase assay (homogeneous time-resolved tyrosine kinase assay, METKA); format: biochemical; conditions: recombinant GST-tagged c-Met cytosolic domain, HTRF, 50 μM MgATP; read-out: Biological Activity (METKA IC50) Activity Code
T1 construct: Recombinant GST-tagged cytosolic domains of human c-Met; 6xHis; made in house; host or cells: Sf9 or Sf21 insect cells (baculovirus)
Method in brief: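 HTRF assay with GST-tagged cytosolic c-Met domain (0.2 nM), 0.5 μM biotinylated peptide, 50 μM MgATP, pH 7.4, 5% DMSO, 80 min at room temperature; Eu-anti-pTyr/SA-APC detection, IC50 by 4-parameter fit. Other kinases identical except enzyme level: mouse c-Met 0.2, Ron 2.5, KDR 8, IGFR 0.24, EGFR 0.24, FGFR 0.14, Mer 16, TrkA 8, Tie2 8 nM.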

T1 sequence (P08581 956-1390 limits assumed): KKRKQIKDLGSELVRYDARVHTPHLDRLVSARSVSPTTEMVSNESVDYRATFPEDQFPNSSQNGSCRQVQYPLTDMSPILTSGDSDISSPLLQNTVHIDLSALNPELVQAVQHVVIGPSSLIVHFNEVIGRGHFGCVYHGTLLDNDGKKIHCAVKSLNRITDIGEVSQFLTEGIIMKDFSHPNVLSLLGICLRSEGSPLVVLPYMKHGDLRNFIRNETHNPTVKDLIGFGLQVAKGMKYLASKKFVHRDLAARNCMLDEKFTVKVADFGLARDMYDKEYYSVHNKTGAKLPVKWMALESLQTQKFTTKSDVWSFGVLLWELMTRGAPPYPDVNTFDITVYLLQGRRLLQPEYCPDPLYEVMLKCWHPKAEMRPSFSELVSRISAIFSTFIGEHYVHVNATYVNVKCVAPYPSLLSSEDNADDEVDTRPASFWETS

Row | SMILES | IC50
1 | CC(Oc1ccc2ncccc2c1)c1nn(-c2cccc(Br)c2)ccc1=O (single isomer, unassigned) [Example 113, 1-(3-bromophenyl)-3-[1-(quinolin-6-yloxy)ethyl]pyridazin-4(1H)-one] | 1000 to 3000 nM
2 | Cn1cc(-n2ccc(=O)c(OCc3ccc4ncccc4c3)n2)cn1 [Example 127, 1-(1-Methyl-1H-pyrazol-4-yl)-3-(quinolin-6-ylmethoxy)pyridazin-4(1H)-one] | 1000 to 3000 nM
3 | CN(Cc1nn(-c2cnn(C)c2)ccc1=O)c1ccc2ncccc2c1 [Example 108, 1-(1-Methyl-1H-pyrazol-4-yl)-3-{[methyl(quinolin-6-yl)amino]methyl}pyridazin-4(1H)-one] | < 100 nM
4 | COCCOC(=O)Nc1ccc(CCc2nn(-c3cnn(C)c3)ccc2=O)cc1 [Example 120, 2-methoxyethyl (4-{2-[1-(1-methyl-1H-pyrazol-4-yl)-4-oxo-1,4-dihydropyridazin-3-yl]ethyl}phenyl)carbamate] | 1000 to 3000 nM
5 | COCCOc1ccnc2ccc(OCc3nn(-c4cnn(C)c4)ccc3=O)cc12 [Example 34, 3-({[4-(2-methoxyethoxy)quinolin-6-yl]oxy}methyl)-1-(1-methyl-1H-pyrazol-4-yl)pyridazin-4(1H)-one] | 100 to 1000 nM
6 | CC(Oc1nn(-c2cnn(C)c2)ccc1=O)c1ccc2ncc(-c3cnn(C)c3)cc2c1 (centres unmarked) [Example 136, 1-(1-methyl-1H-pyrazol-4-yl)-3-{1-[3-(1-methyl-1H-pyrazol-4-yl)quinolin-6-yl]ethoxy}pyridazin-4(1H)-one] | < 100 nM
7 | Cn1cc(-n2ccc(=O)c(COc3ccc4ncc(C(=O)N5CCOCC5)cc4c3)n2)cn1 [Example 109, 1-(1-methyl-1H-pyrazol-4-yl)-3-({[3-(morpholin-4-ylcarbonyl)quinolin-6-yl]oxy}methyl)pyridazin-4(1H)-one] | 1000 to 3000 nM
8 | Cn1cc(-n2ccc(=O)c(SCc3ccc4ncccc4c3)n2)cn1 [Example 149, 1-(1-methyl-1H-pyrazol-4-yl)-3-[(quinolin-6-ylmethyl)thio]pyridazin-4(1H)-one] | < 100 nM
9 | NC(=O)c1cccc(-n2ccc(=O)c(COc3ccc4ncccc4c3)n2)c1 [Example 51, 3-{4-Oxo-3-[(quinolin-6-yloxy)methyl]pyridazin-1(4H)-yl}benzamide] | < 100 nM

Results, then the compound that gave them:

Row | IC50 | SMILES
10 | < 100 nM | COCCOc1cnc2ccc(OCc3nn(-c4cccc(Br)c4)ccc3=O)cc2c1 [Example 38, 1-(3-bromophenyl)-3-({[3-(2-methoxyethoxy)quinolin-6-yl]oxy}methyl)pyridazin-4(1H)-one]
11 | < 100 nM | CCn1cc(-n2ccc(=O)c(COc3ccc4ncc(-c5ccc(C#N)nc5)cc4c3)n2)cn1 [Example 81, 5-(6-{[1-(1-ethyl-1H-pyrazol-4-yl)-4-oxo-1,4-dihydropyridazin-3-yl]methoxy}quinolin-3-yl)pyridine-2-carbonitrile]
12 | < 100 nM | CCn1cc(-n2ccc(=O)c(COc3ccc4ncc(-c5ccccc5)cc4c3)n2)cn1 [Example 91, 1-(1-ethyl-1H-pyrazol-4-yl)-3-{[(3-phenylquinolin-6-yl)oxy]methyl}pyridazin-4(1H)-one]
13 | < 100 nM | O=c1ccn(-c2cncc(Br)c2)nc1COc1ccc2ncccc2c1 [Example 21, 1-(5-bromopyridin-3-yl)-3-[(quinolin-6-yloxy)methyl] pyridazin-4(1H)-one]
14 | < 100 nM | CCn1cc(-n2ccc(=O)c(COc3ccc4ncc(Oc5ccccn5)cc4c3)n2)cn1 [Example 67, 1-(1-ethyl-1H-pyrazol-4-yl)-3-({[3-(pyridin-2-yloxy)quinolin-6-yl]oxy}methyl)pyridazin-4(1H)-one]
15 | < 100 nM | [2H]C([2H])([2H])C([2H])([2H])Oc1cnc2ccc(OCc3nn(-c4cnn(C)c4)ccc3=O)cc2c1 [Example 64, 3-[({3-[(^2H5)ethyloxy]quinolin-6-yl}oxy)methyl]-1-(1-methyl-1H-pyrazol-4-yl)pyridazin-4(1H)-one]
16 | < 100 nM | CCOc1cnc2ccc(CCc3nn(-c4cnn(C)c4)ccc3=O)cc2c1 [Example 58, 3-[2-(3-ethoxyquinolin-6-yl)ethyl]-1-(1-methyl-1H-pyrazol-4-yl)pyridazin-4(1H)-one]
17 | < 100 nM | COCc1cn(-c2cnc3ccc(OCc4nn(-c5cnn(C)c5)ccc4=O)cc3c2)nn1 [Example 40, 3-[({3-[4-(methoxymethyl)-1H-1,2,3-triazol-1-yl]quinolin-6-yl}oxy)methyl]-1-(1-methyl-1H-pyrazol-4-yl)pyridazin-4(1H)-one]
18 | < 100 nM | CCn1cc(-n2ccc(=O)c(COc3ccc4ncc(-c5cnn(CCOC)c5)cc4c3)n2)cn1 [Example 77, 1-(1-ethyl-1H-pyrazol-4-yl)-3-[({3-[1-(2-methoxyethyl)-1H-pyrazol-4-yl]quinolin-6-yl}oxy)methyl]pyridazin-4(1H)-one]
19 | < 100 nM | CCn1cc(-n2ccc(=O)c(COc3ccc4ncc(OCC(F)F)cc4c3)n2)cn1 [Example 68, 3-({[3-(2,2-difluoroethoxy)quinolin-6-yl]oxy}methyl)-1-(1-ethyl-1H-pyrazol-4-yl)pyridazin-4(1H)-one]
20 | < 100 nM | Cn1cc(-n2ccc(=O)c(COc3ccc4ncc(NC(=O)OC(C)(C)C)cc4c3)n2)cn1 [Example 110, tert-butyl (6-{[1-(1-methyl-1H-pyrazol-4-yl)-4-oxo-1,4-dihydropyridazin-3-yl]methoxy}quinolin-3-yl)carbamate]
